Each compound was assayed on recombinant guanylate cyclase reporter cell line (assay: Effect on a recombinant guanylate cyclase reporter cell line). Details: in some cases mean values for individual determinations, read-out: MEC (minimum effective concentration).
Assay type: cell-based
Protocol: B-2. Effect on a Recombinant Guanylate Cyclase Reporter Cell Line
The cellular activity of the compounds according to the invention is determined using a recombinant guanylate cyclase reporter cell line, as described in F. Wunder et al., Anal. Biochem. 339, 104-112 (2005).
Representative MEC values (MEC=minimum effective concentration) for the compounds of the invention are shown in the table below (in some cases as mean values for individual determinations): […]

Compound | minimal effective concentration [µM]
Cc1cc(OCc2c(F)cccc2F)c2nc(C)c(C(=O)NOC[C@H](O)CO)n2c1 [Example 11, 8-[(2,6-Difluorobenzyl)oxy]-N-{[(2R)-2,3-dihydroxypropyl]oxy}-2,6-dimethylimidazo[1,2-a]pyridine-3-carboxamide] | 1
Cc1cc(OCc2c(F)cccc2F)c2nc(C)c(C(=O)NOC(C)c3ccccc3)n2c1 (racemic) [Example 78, rac-8-[(2,6-Difluorobenzyl)oxy]-2,6-dimethyl-N-(1-phenylethoxy)imidazo[1,2-a]pyridine-3-carboxamide] | 1
COc1cc(OC)nc(NNC(=O)c2c(C)nc3c(OCc4c(F)cccc4F)cc(C)cn23)n1 [Example 43] | 0.3
Cc1cc(OCc2c(F)cccc2F)c2nc(C)c(C(=O)NNC(=O)C3CC3)n2c1 [Example 60] | 1
Cc1cc(OCc2c(F)cccc2F)c2nc(C)c(C(=O)NOCCN(C)C)n2c1 [Example 2] | 1
Cc1cc(OCc2c(F)cccc2F)c2nc(C)c(C(=O)NN3CCC(C(F)(F)F)C3)n2c1 (stereo not drawn) [Example 79, 8-[(2,6-Difluorobenzyl)oxy]-2,6-dimethyl-N-[3-(trifluoromethyl)pyrrolidin-1-yl]imidazo[1,2-a]pyridine-3-carboxamide] | 0.1
Cc1cc(OCc2c(F)cccc2F)c2nc(C)c(C(=O)NNC(=O)c3nccs3)n2c1 [Example 50] | 1
Cc1cc(OCc2c(F)cccc2F)c2nc(C)c(C(=O)NOCC(=O)N3CCN(c4ccccc4)CC3)n2c1 [Example 5] | 10
Cc1cc(OCc2c(F)cccc2F)c2nc(C)c(C(=O)NNc3ccccn3)n2c1 [Example 40] | 0.3
O=C(NOCCO)c1cnc2c(OCc3c(F)cccc3F)cccn12 [Example 14] | 10
Cc1cc(OCc2c(F)ccc(F)c2F)c2nc(C)c(C(=O)NN3CCOCC3)n2c1 [Example 12, 2,6-Dimethyl-N-(morpholin-4-yl)-8-[(2,3,6-trifluorobenzyl)oxy]imidazo[1,2-a]pyridine-3-carboxamide] | 1
Cc1cc(OCc2c(F)cccc2F)c2nc(C)c(C(=O)NOCCN)n2c1 [Example 7, N-(2-Aminoethoxy)-8-[(2,6-difluorobenzyl)oxy]-2,6-dimethylimidazo[1,2-a]pyridine-3-carboxamide hydrate] | 1
Cc1cc(OCc2c(F)cccc2F)c2nc(C)c(C(=O)NNC(C)C)n2c1 [Example 69] | 10
Cc1cc(OCc2c(F)cccc2F)c2nc(C)c(C(=O)NNC3CCCC3)n2c1 [Example 64] | 3
Cc1cc(OCc2c(F)cccc2F)c2nc(C)c(C(=O)NOCCO)n2c1 [Example 1, 8-[(2,6-Difluorobenzyl)oxy]-N-(2-hydroxyethoxy)-2,6-dimethylimidazo[1,2-a]pyridine-3-carboxamide] | 0.3
Cc1cc(OCc2c(F)cccc2F)c2nc(C)c(C(=O)NNC(=O)C3CCCC3)n2c1 [Example 31] | 0.3
Cc1cc(OCc2c(F)cccc2F)c2nc(C)c(C(=O)NNc3ccc(OC(F)(F)F)cc3)n2c1 [Example 48] | 1
CCNNC(=O)c1c(C)nc2c(OCc3c(F)cccc3F)cc(C)cn12 [Example 61] | 10
Cc1cc(OCc2c(F)cccc2F)c2nc(C)c(C(=O)NN(C)c3ccccc3)n2c1 [Example 51] | 0.1
Cc1cc(OCc2c(F)cccc2F)c2nc(C)c(C(=O)NNC(=O)CN3CCOCC3)n2c1 [Example 76, 8-[(2,6-Difluorobenzyl)oxy]-2,6-dimethyl-N′-(morpholin-4-ylacetyl)imidazo[1,2-a]pyridine-3-carbohydrazide] | 0.3
Cc1cc(C)cc(NNC(=O)c2c(C)nc3c(OCc4c(F)cccc4F)cc(C)cn23)c1 [Example 53] | 1
Cc1cc(OCc2c(F)cccc2F)c2nc(C)c(C(=O)NOC3COC3)n2c1 [Example 6] | 1
Cc1cc(OCc2c(F)cccc2F)c2nc(C)c(C(=O)NNC3CCS(=O)(=O)CC3)n2c1 [Example 80, 8-[(2,6-Difluorobenzyl)oxy]-N′-(1,1-dioxidotetrahydro-2H-thiopyran-4-yl)-2,6-dimethylimidazo[1,2-a]pyridine-3-carbohydrazide] | 2

Compound | minimal effective concentration [µM]
CCCCCCC(CCC)NNC(=O)c1c(C)nc2c(OCc3c(F)cccc3F)cc(C)cn12 (stereo not drawn) [Example 44] | 3
CSCCNNC(=O)c1c(C)nc2c(OCc3c(F)cccc3F)cc(C)cn12 [Example 66] | 3
Cc1cc(OCc2c(F)cccc2F)c2nc(C)c(C(=O)NNCCc3ccccc3)n2c1 [Example 49] | 1
COCCC(=O)NNC(=O)c1c(C)nc2c(OCc3c(F)cccc3F)cc(C)cn12 [Example 33] | 0.3
Cc1cc(OCc2c(F)cccc2F)c2nc(C)c(C(=O)NNC(=O)CN(C)C)n2c1 [Example 37] | 0.1
Cc1cc(OCc2c(F)cccc2F)c2nc(C)c(C(=O)NNc3ccnc4c(F)cccc34)n2c1 [Example 57] | 1
Cc1cc(OCc2c(F)cccc2F)c2nc(C)c(C(=O)NNCC(C)C)n2c1 [Example 27, 8-[(2,6-Difluorobenzyl)oxy]-N′-isobutyl-2,6-dimethylimidazo[1,2-a]pyridine-3-carbohydrazide] | 0.3
Cc1cc(OCc2c(F)cccc2F)c2nc(C)c(C(=O)NNCc3csc(C)n3)n2c1 [Example 65] | 1
Cc1cc(OCc2c(F)cccc2F)c2nc(C)c(C(=O)NOCC3CC3)n2c1 [Example 77, N-(Cyclopropylmethoxy)-8[(2,6-difluorobenzyl)oxy]-2,6-dimethylimidazo[1,2-a]pyridine-3-carboxamide] | 0.3
Cc1cc(OCc2c(F)cccc2F)c2nc(C)c(C(=O)NNCc3ccccc3)n2c1 [Example 67] | 1
Cc1cc(OCc2c(F)cccc2F)c2nc(C)c(C(=O)NNc3ccc(Cl)cc3)n2c1 [Example 46] | 0.1
Cc1cc(OCc2c(F)cccc2F)c2nc(C)c(C(=O)NNC3CCS(=O)(=O)C3)n2c1 (stereo not drawn) [Example 71] | 1
Cc1cc(OCc2c(F)cccc2F)c2nc(C)c(C(=O)NNC3CCCCC3)n2c1 [Example 74] | 3
Cc1cc(OCc2c(F)cccc2F)c2nc(C)c(C(=O)NNC3CS(=O)(=O)CC3O)n2c1 (stereo not drawn) [Example 73] | 3
COc1cc(OCc2c(F)cccc2F)c2nc(C)c(C(=O)NN3CCOCC3)n2c1 [Example 21] | 3
Cc1cc(OCc2c(F)cccc2F)c2nc(C)c(C(=O)NNc3cccc(Br)c3)n2c1 [Example 54] | 0.3
Cc1cc(OCc2c(F)cccc2F)c2nc(C)c(C(=O)NNC(=O)CN)n2c1 [Example 75, N′-(Aminoacetyl)-8-[(2,6-difluoroenzyl)oxy]-2,6-dimethylimidazo[1,2-a]pyridine-3-carbohydrazide] | 1
Cc1cc(OCc2c(F)cccc2F)c2nc(C)c(C(=O)NNC(C)(C)C)n2c1 [Example 38] | 0.3
Cc1cc(OCc2c(F)cccc2F)c2nc(C)c(C(=O)NOCC(F)(F)F)n2c1 [Example 81, 8-[(2,6-Difluorobenzyl)oxy]-2,6-dimethyl-N-(2,2,2-trifluoroethoxy)imidazo[1,2-a]pyridine-3-carboxamide] | 0.65
Cc1cc(OCc2c(F)cccc2F)c2nc(C)c(C(=O)NOCC(N)C(C)C)n2c1 (stereo not drawn) [Example 9] | 1
Cc1cc(OCc2c(F)cccc2F)c2nc(C)c(C(=O)NN3CCN(CCO)CC3)n2c1 [Example 30] | 1
Cc1cc(OCc2c(F)cccc2F)c2nc(C)c(C(=O)NNC3CCCC3O)n2c1 (stereo not drawn) [Example 70] | 0.3

Source: patent US20170057954A1, “SUBSTITUTED IMIDAZO[1,2-A]PYRIDINECARBOXAMIDES AND THEIR USE” (Bayer Pharma Aktiengesellschaft, priority 2014, published 2017)
